# Earlier results, collected in patent US20130172260A1, “PREVENTION OF INDWELLING DEVICE RELATED INFECTION: COMPOSITION AND METHODS” (priority 2003, published 2013).
# Tested on: Staphylococcus epidermidis
# Conditions: 5 milli Molar in a medium
compound,measurement,value
O=C(O)c1ccccc1O [salicylic acid],inhibited both growth and Biofilm production,up to 55%
